Patent publication US12421240B2, “Hydropyrazino[1,2-d][1,4]diazepine compounds for the treatment of autoimmune disease” (Hoffmann-La Roche Inc., priority 2019, dated 2025)
pIC50: −log10 of the molar value.

These molecules were tested against T1, human TLR7 (Homo sapiens, UniProt Q9NYK1) (assay: HEK293-Blue-hTLR-7 cells assay (SEAP reporter, R848 stimulation)). Details: HEK293-Blue-hTLR7 cells, R848 ligand, 20 hrs; read-out: HEK/hTLR7 IC50.
T1 sequence (Q9NYK1 27-1049): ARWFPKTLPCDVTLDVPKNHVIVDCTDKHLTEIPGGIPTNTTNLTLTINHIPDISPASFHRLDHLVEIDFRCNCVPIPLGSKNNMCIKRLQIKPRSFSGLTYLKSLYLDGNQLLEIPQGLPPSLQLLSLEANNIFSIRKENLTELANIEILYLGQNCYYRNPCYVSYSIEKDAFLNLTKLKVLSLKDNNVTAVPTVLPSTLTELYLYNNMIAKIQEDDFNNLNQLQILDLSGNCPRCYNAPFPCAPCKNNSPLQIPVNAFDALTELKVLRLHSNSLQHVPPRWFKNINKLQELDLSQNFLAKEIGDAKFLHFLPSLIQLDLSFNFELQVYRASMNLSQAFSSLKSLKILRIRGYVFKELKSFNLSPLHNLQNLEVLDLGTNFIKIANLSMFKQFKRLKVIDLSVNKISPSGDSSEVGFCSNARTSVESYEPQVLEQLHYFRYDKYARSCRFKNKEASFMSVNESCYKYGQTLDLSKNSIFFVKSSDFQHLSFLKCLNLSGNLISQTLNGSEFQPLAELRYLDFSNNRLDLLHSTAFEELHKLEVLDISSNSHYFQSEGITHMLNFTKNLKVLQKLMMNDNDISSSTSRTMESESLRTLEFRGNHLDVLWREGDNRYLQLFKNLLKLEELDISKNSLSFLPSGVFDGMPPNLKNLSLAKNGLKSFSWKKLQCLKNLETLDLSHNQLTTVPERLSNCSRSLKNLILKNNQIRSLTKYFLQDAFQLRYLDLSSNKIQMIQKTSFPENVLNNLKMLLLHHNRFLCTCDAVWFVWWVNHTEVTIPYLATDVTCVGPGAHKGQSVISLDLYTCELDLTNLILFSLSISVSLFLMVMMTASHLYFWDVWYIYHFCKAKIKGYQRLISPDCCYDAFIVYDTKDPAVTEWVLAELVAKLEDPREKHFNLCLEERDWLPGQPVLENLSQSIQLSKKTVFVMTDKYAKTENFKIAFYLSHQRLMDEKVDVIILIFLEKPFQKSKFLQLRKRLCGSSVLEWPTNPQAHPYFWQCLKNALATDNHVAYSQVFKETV
Assay type: cell-based
Protocol: The following tests were carried out in order to determine the activity of the compounds of formula (I), (Ia) or (Ib) in HEK293-Blue-hTLR-7/8/9 cells assay.
HEK293-Blue-hTLR-7 Cells Assay:
A stable HEK293-Blue-hTLR-7 cell line was purchased from InvivoGen (Cat. #: hkb-htlr7, San Diego, California, USA). These cells were originally designed for studying the stimulation of human TLR7 by monitoring the activation of NF-κB. A SEAP (secreted embryonic alkaline phosphatase) reporter gene was placed under the control of the IFN-β minimal promoter fused to five NF-κB and AP-1-binding sites. The SEAP was induced by activating NF-κB and AP-1 via stimulating HEK-Blue hTLR7 cells with TLR7 ligands. Therefore the reporter expression was declined by TLR7 antagonist under the stimulation of a ligand, such as R848 (Resiquimod), for incubation of 20 hrs. The cell culture supernatant SEAP reporter activity was determined using QUANTI-Blue™ kit (Cat. #: rep-qb1, Invivogen, San Diego, Ca., USA) at a wavelength of 640 nm, a detection medium that turns purple or blue in the presence of alkaline phosphatase.
HEK293-Blue-hTLR7 cells were incubated at a density of 250,000-450,000 cells/mL in a volume of 170 μL in a 96-well plate in Dulbecco's Modified Eagle's medium (DMEM) containing 4.5 g/L glucose, 50 U/mL penicillin, […], […], 2 mM L-glutamine, 10% (v/v) heat-inactivated fetal bovine serum with addition of 20 μL test compound in a serial dilution in the presence of final DMSO at 1% and 10 μL of 20 uM R848 in above DMEM, perform incubation under 37° C. in a CO2 incubator for 20 hrs. Then 20 μL of the supernatant from each well was incubated with 180 μL Quanti-blue substrate solution at 37° C. for 2 hrs and the absorbance was read at 620655 nm using a spectrophotometer. The signaling pathway that TLR7 activation leads to downstream NF-κB activation has been widely accepted, and therefore similar reporter assay was modified for evaluating TLR7 antagonist.

Compound	pIC50
C[C@@H]1CN(c2ccc(C#N)c3ncccc23)C[C@@H]2CCN(Cc3cncc(N4CCNCC4)c3)CCN21 [Example 16, 5-[(4R,10aS)-4-methyl-8-[(5-piperazin-1-yl-3-pyridyl)methyl]-1,3,4,6,7,9,10,10a-octahydropyrazino[1,2-d][1,4]diazepin-2-yl]quinoline-8-carbonitrile]	7.95
C[C@@H]1CN(c2ccc(C#N)c3ncccc23)C[C@@H]2CCN(c3ccc([C@H]4CNCCO4)cc3)CCN21 [Example 3, 5-[(4R,10aS)-4-methyl-8-[4-[(2S)-morpholin-2-yl]phenyl]-1,3,4,6,7,9,10,10a-octahydropyrazino[1,2-d][1,4]diazepin-2-yl]quinoline-8-carbonitrile]	7.27
C[C@@H]1CN(c2ccc(C#N)c3ncccc23)C[C@@H]2CCN(Cc3ccc(N4CCNCC4)cn3)CCN21 [Example 19, 5-[(4R,10aS)-4-methyl-8-[(5-piperazin-1-yl-2-pyridyl)methyl]-1,3,4,6,7,9,10,10a-octahydropyrazino[1,2-d][1,4]diazepin-2-yl]quinoline-8-carbonitrile]	8.32
C[C@@H]1CN(c2cc(=O)n(C)c3ncccc23)C[C@@H]2CCN(Cc3ccc4c(c3)CNCC4)CCN21 [Example 28, 4-[(4R,10aS)-4-methyl-8-(1,2,3,4-tetrahydroisoquinolin-7-ylmethyl)-1,3,4,6,7,9,10,10a-octahydropyrazino[1,2-d][1,4]diazepin-2-yl]-1-methyl-1,8-naphthyridin-2-one]	7.44
C[C@@H]1CN(c2ccc(C#N)c3ncccc23)C[C@@H]2CCN(Cc3cnc(N4CCNCC4)nc3)CCN21 [Example 14, 5-[(4R,10aS)-4-methyl-8-[(2-piperazin-1-ylpyrimidin-5-yl)methyl]-1,3,4,6,7,9,10,10a-octahydropyrazino[1,2-d][1,4]diazepin-2-yl]quinoline-8-carbonitrile]	8.74
C[C@@H]1CN(c2ccc(C#N)c3ncccc23)C[C@@H]2CCN(Cc3ccc(N4CCNCC4)nc3)CCN21 [Example 17, 5-[(4R,10aS)-4-methyl-8-[(6-piperazin-1-yl-3-pyridyl)methyl]-1,3,4,6,7,9,10,10a-octahydropyrazino[1,2-d][1,4]diazepin-2-yl]quinoline-8-carbonitrile]	8.92
C[C@@H]1CN(c2ccc(C#N)c3ncccc23)C[C@@H]2CCN(c3cc4c(cn3)CNCC4)CCN21 [Example 7, 5-[(4R,10aS)-4-methyl-8-(5,6,7,8-tetrahydro-2,7-naphthyridin-3-yl)-1,3,4,6,7,9,10,10a-octahydropyrazino[1,2-d][1,4]diazepin-2-yl]quinoline-8-carbonitrile]	7.21
C[C@@H]1CN(c2ccc(C#N)c3ncccc23)C[C@@H]2CCN(Cc3ccc(N4CCOC[C@H](N)C4)cn3)CCN21 [Example 21, 5-[(4R,10aS)-8-[[5-[(6R)-6-amino-1,4-oxazepan-4-yl]-2-pyridyl]methyl]-4-methyl-1,3,4,6,7,9,10,10a-octahydropyrazino[1,2-d][1,4]diazepin-2-yl]quinoline-8-carbonitrile]	7.22
C[C@@H]1CN(c2ccc(C#N)c3ncccc23)C[C@@H]2CCN(Cc3ccc4c(c3)CCNC4)CCN21 [Example 11, 5-[(4R,10aS)-4-methyl-8-(1,2,3,4-tetrahydroisoquinolin-6-ylmethyl)-1,3,4,6,7,9,10,10a-octahydropyrazino[1,2-d][1,4]diazepin-2-yl]quinoline-8-carbonitrile]	8.21
